# Measurements from US8013156B2 (Exelixis, Inc., priority 2003, dated 2011).
# Biological target: Tie-2 (Homo sapiens, UniProt Q02763)
# Assay: Tie-2 tyrosine kinase activity assay (luciferase/luciferin ATP consumption with pEY substrate, or 33P-ATP incorporation)
# Format: biochemical
# Conditions: human enzyme Tie-2
# Experimental: One measure of inhibition is Ki. […] The Ki for a compound is determined from the IC50 based on three assumptions. First, only one compound molecule binds to the enzyme and there is no cooperativity. […] Third, the enzymatic rate of the enzyme-inhibitor complex is zero. The rate data (i.e. compound concentration) are fitted to the equation:
# [formula] where V is the observed rate, Vmax, is the rate of the free enzyme, I0 is the inhibitor concentration, E0 is the enzyme concentration, and Kd is the dissociation constant of the enzyme-inhibitor complex.
# Tyrosine kinase activity is determined by 1) measurement of kinase-dependent ATP consumption by in the presence of a generic substrate such as […], tyrosine (pEY), by luciferase/luciferin-mediated chemiluminescence or; 2) incorporation of radioactive phosphate derived from ^33P-ATP into a generic substrate which has been adsorbed onto the well surface of polystyrene microtiter plates. Phosphorylated substrate products are quantified by scintillation spectrometry.
# Inhibition is indicated as IC50 with following key: A=IC50 less than 50 nM, B=IC50 greater than 50 nM, but less than or equal to 1000 nM, C=IC50 greater than 1000 nM, but less than 10,000 nM, D=IC50 10,000 nM or greater, and “-”=no data available. The abbreviation for human enzyme, Tie-2, is defined as tyrosine kinase with immunoglobulin and EGF repeats.
# Sequence of Tie-2 (Q02763 23-1124): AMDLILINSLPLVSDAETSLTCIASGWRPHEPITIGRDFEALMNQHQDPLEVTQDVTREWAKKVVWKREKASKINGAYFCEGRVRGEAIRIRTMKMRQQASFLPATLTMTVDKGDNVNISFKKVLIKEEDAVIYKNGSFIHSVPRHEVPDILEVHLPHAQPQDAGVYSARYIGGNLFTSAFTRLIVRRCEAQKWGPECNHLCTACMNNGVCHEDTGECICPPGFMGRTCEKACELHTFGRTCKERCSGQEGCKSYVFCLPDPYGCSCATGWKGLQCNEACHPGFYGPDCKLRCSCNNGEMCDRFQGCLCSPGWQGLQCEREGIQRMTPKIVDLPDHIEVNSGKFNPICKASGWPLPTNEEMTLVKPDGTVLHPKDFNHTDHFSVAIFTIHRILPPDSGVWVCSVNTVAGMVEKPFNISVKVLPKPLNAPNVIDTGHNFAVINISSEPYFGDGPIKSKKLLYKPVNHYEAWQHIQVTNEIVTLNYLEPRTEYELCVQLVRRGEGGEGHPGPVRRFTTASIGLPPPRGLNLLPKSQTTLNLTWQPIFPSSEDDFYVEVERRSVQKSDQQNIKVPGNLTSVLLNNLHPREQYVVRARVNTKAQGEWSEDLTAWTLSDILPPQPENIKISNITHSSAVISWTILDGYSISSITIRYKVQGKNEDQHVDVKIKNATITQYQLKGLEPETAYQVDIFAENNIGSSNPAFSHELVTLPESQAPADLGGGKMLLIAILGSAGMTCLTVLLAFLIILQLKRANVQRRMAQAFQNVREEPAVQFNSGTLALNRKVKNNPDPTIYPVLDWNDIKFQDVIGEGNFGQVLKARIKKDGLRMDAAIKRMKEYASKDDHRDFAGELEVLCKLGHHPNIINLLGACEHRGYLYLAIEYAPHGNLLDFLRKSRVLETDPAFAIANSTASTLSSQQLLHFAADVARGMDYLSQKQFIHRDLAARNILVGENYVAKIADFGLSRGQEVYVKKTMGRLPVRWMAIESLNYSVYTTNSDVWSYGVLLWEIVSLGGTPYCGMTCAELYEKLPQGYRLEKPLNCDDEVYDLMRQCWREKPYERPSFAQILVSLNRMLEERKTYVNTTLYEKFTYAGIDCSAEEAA
row,Compound,IC50
1,"O=C(Nc1cc(C(F)(F)F)cc(C(F)(F)F)c1)NC1CCN(c2nccnc2OCc2ccncc2)C1 (stereo not drawn) [Example 67, N-[3,5-bis(trifluoromethyl)phenyl]-N′-(1-{3-[(pyridin-4-ylmethyl)oxy]pyrazin-2-yl}pyrrolidin-3-yl)urea]",50 to 1000 nM
2,"CC1CN(c2nsnc2OCc2ccncc2)CC(C)N1C(=O)Nc1cc(C(F)(F)F)cc(C(F)(F)F)c1 (stereo not drawn) [Example 68, N-[3,5-bis(trifluoromethyl)phenyl]-2,6-dimethyl-4-{4-[(pyridin-4-ylmethyl)oxy]-1,2,5-thiadiazol-3-yl}piperazine-1-carboxamide]",50 to 1000 nM
3,"CC1CN(c2nsnc2OCc2ccncc2)CC(C)N1C(=O)Nc1cccc(C(F)(F)F)c1 (stereo not drawn) [Example 69, 2,6-dimethyl-4-{4-[(pyridin-4-ylmethyl)oxy]-1,2,5-thiadiazol-3-yl}-N-[3-(trifluoromethyl)phenyl]piperazine-1-carboxamide]",50 to 1000 nM
4,"CC1CN(C(=O)Nc2cc(C(F)(F)F)cc(C(F)(F)F)c2)CCN1c1nccnc1OCc1ccncc1 (stereo not drawn) [Example 70, N-[3,5-bis(trifluoromethyl)phenyl]-3-methyl-4-{3-[(pyridin-4-ylmethyl)oxy]pyrazin-2-yl}piperazine-1-carboxamide]",< 50 nM
5,"CC1CN(C(=O)Nc2cccc(C(F)(F)F)c2)CCN1c1nccnc1OCc1ccncc1 (stereo not drawn) [Example 71, 3-methyl-4-{3-[(pyridin-4-ylmethyl)oxy]pyrazin-2-yl}-N-[3-(trifluoromethyl)phenyl]piperazine-1-carboxamide]",50 to 1000 nM
6,"O=C(Nc1cc(C(F)(F)F)cc(C(F)(F)F)c1)N1CCN(c2ccccc2OCc2ccncc2)CC1 [Example 72, N-[3,5-bis(trifluoromethyl)phenyl]-4-{2-[(pyridin-4-ylmethyl)oxy]phenyl}piperazine-1-carboxamide]",< 50 nM
7,"O=C(Nc1cccc(C(F)(F)F)c1)N1CCN(c2ccccc2OCc2ccncc2)CC1 [Example 73, 4-{2-[(pyridin-4-ylmethyl)oxy]phenyl}-N-[3-(trifluoromethyl)phenyl]piperazine-1-carboxamide]",50 to 1000 nM
8,"CC1CN(c2nc3ccccc3nc2OCc2ccncc2)CCN1C(=O)Nc1cc(C(F)(F)F)cc(C(F)(F)F)c1 (stereo not drawn) [Example 74, N-[3,5-bis(trifluoromethyl)phenyl]-2-methyl-4-{3-[(pyridin-4-ylmethyl)oxy]quinoxalin-2-yl}piperazine-1-carboxamide]",50 to 1000 nM
9,"O=C(Nc1cc(C(F)(F)F)cc(C(F)(F)F)c1)N1CCCN(c2nccnc2OCc2ccncc2)CC1 [Example 75, N-[3,5-bis(trifluoromethyl)phenyl]-4-{3-[(pyridin-4-ylmethyl)oxy]pyrazin-2-yl}-1,4-diazepane-1-carboxamide]",50 to 1000 nM
10,"CC1CN(c2nc3ccccc3nc2OCc2ccncc2)CCN1C(=O)Nc1cccc(C(F)(F)F)c1 (stereo not drawn) [Example 76, 2-methyl-4-{3-[(pyridin-4-ylmethyl)oxy]quinoxalin-2-yl}-N-[3-(trifluoromethyl)phenyl]piperazine-1-carboxamide]",50 to 1000 nM
11,"O=C(Nc1cccc(C(F)(F)F)c1)N1CCCN(c2nccnc2OCc2ccncc2)CC1 [Example 77, 4-{3-[(pyridin-4-ylmethyl)oxy]pyrazin-2-yl}-N-[3-(trifluoromethyl)phenyl]-1,4-diazepane-1-carboxamide]",50 to 1000 nM
12,"CC1CN(c2nccnc2OCc2ccncc2)C(C)CN1C(=O)Nc1cc(C(F)(F)F)cc(C(F)(F)F)c1 (stereo not drawn) [Example 78, N-[3,5-bis(trifluoromethyl)phenyl]-2,5-dimethyl-4-{3-[(pyridin-4-ylmethyl)oxy]pyrazin-2-yl}piperazine-1-carboxamide]",< 50 nM
13,"CC1CN(c2nccnc2OCc2ccncc2)C(C)CN1C(=O)Nc1cccc(C(F)(F)F)c1 (stereo not drawn) [Example 79, 2,5-dimethyl-4-{3-[(pyridin-4-ylmethyl)oxy]pyrazin-2-yl}-N-[3-(trifluoromethyl)phenyl]piperazine-1-carboxamide]",50 to 1000 nM
14,"C[C@H]1CN(c2nccnc2OCc2ccncc2)CCN1C(=O)Nc1cc(C(F)(F)F)cc(C(F)(F)F)c1 [Example 80, (2S)-N-[3,5-bis(trifluoromethyl)phenyl]-2-methyl-4-{3-[(pyridin-4-ylmethyl)oxy]pyrazin-2-yl}piperazine-1-carboxamide]",< 50 nM
15,"C[C@H]1CN(c2nccnc2OCc2ccncc2)CCN1C(=O)Nc1cccc(C(F)(F)F)c1 [Example 81, (2S)-2-methyl-4-{3-[(pyridin-4-ylmethyl)oxy]pyrazin-2-yl}-N-[3-(trifluoromethyl)phenyl]piperazine-1-carboxamide]",< 50 nM
16,"O=C(Nc1cc(C(F)(F)F)cc(C(F)(F)F)c1)N1CCN(c2nsnc2OCc2ccnc(F)c2)CC1 [Example 82, N-[3,5-bis(trifluoromethyl)phenyl]-4-(4-{[(2-fluoropyridin-4-yl)methyl]oxy}-1,2,5-thiadiazol-3-yl)piperazine-1-carboxamide]",1000 to 10000 nM
17,"O=C(Nc1cc(C(F)(F)F)cc(C(F)(F)F)c1)N1CCN(c2nsnc2OCc2ccnc(Cl)c2)CC1 [Example 83, N-[3,5-bis(trifluoromethyl)phenyl]-4-(4-{[(2-chloropyridin-4-yl)methyl]oxy}-1,2,5-thiadiazol-3-yl)piperazine-1-carboxamide]",1000 to 10000 nM
18,"O=C(Nc1cc(C(F)(F)F)cc(C(F)(F)F)c1)N1CCN(c2nccnc2OCc2ccnc(Cl)c2)CC1 [Example 84, N-[3,5-bis(trifluoromethyl)phenyl]-4-(3-{[(2-chloropyridin-4-yl)methyl]oxy}pyrazin-2-yl)piperazine-1-carboxamide]",50 to 1000 nM
19,"O=C(Nc1cc(C(F)(F)F)cc(C(F)(F)F)c1)N1CCN(c2nsnc2OCc2ccnc(Br)c2)CC1 [Example 87, N-[3,5-bis(trifluoromethyl)phenyl]-4-(4-{[(2-bromopyridin-4-yl)methyl]oxy}-1,2,5-thiadiazol-3-yl)piperazine-1-carboxamide]",1000 to 10000 nM
20,"O=C(Nc1cc(C(F)(F)F)cc(C(F)(F)F)c1)N1CCN(c2nccnc2OCc2ccnc(F)c2)CC1 [Example 89, N-[3,5-bis(trifluoromethyl)phenyl]-4-(3-{[(2-fluoropyridin-4-yl)methyl]oxy}pyrazin-2-yl)piperazine-1-carboxamide]",50 to 1000 nM
21,"N#Cc1nc(OCc2ccncc2)c(N2CCN(C(=O)Nc3cc(C(F)(F)F)cc(C(F)(F)F)c3)CC2)nc1C#N [Example 90, N-[3,5-bis(trifluoromethyl)phenyl]-4-{5,6-dicyano-3-[(pyridin-4-ylmethyl)oxy]pyrazin-2-yl}piperazine-1-carboxamide]",50 to 1000 nM
22,"N#Cc1nc(OCc2ccncc2)c(N2CCN(C(=O)Nc3cccc(C(F)(F)F)c3)CC2)nc1C#N [Example 91, 4-{5,6-dicyano-3-[(pyridin-4-ylmethyl)oxy]pyrazin-2-yl}-N-[3-(trifluoromethyl)phenyl]piperazine-1-carboxamide]",50 to 1000 nM
23,"CCc1cccc(NC(=O)N2CCN(c3nccnc3OCc3ccncc3)CC2)c1 [Example 92, N-(3-ethylphenyl)-4-{3-[(pyridin-4-ylmethyl)oxy]pyrazin-2-yl}piperazine-1-carboxamide]",< 50 nM
24,"CCc1cccc(NC(=O)N2CCN(c3nccnc3OCc3ccncc3)CC2C)c1 (stereo not drawn) [Example 93, N-(3-ethylphenyl)-2-methyl-4-{3-[(pyridin-4-ylmethyl)oxy]pyrazin-2-yl}piperazine-1-carboxamide]",< 50 nM
25,"CCc1cccc(NC(=O)N2C(C)CN(c3nccnc3OCc3ccncc3)CC2C)c1 (stereo not drawn) [Example 94, N-(3-ethylphenyl)-2,6-dimethyl-4-{3-[(pyridin-4-ylmethyl)oxy]pyrazin-2-yl}piperazine-1-carboxamide]",50 to 1000 nM
26,"CCc1cccc(NC(=O)N2CCN(c3nc4ccccc4nc3OCc3ccncc3)CC2C)c1 (stereo not drawn) [Example 95, N-(3-ethylphenyl)-2-methyl-4-{3-[(pyridin-4-ylmethyl)oxy]quinoxalin-2-yl}piperazine-1-carboxamide]",50 to 1000 nM
27,"O=C(Nc1cc(C(F)(F)F)cc(C(F)(F)F)c1)N1CCN(c2nccnc2CCc2ccncc2)CC1 [Example 96, N-[3,5-bis(trifluoromethyl)phenyl]-4-[3-(2-pyridin-4-ylethyl)pyrazin-2-yl]piperazine-1-carboxamide]",50 to 1000 nM
28,"O=C(Nc1cc(C(F)(F)F)cc(C(F)(F)F)c1)N1CCN(c2ncccc2OCc2ccncc2)CC1 [Example 97, N-[3,5-bis(trifluoromethyl)phenyl]-4-{3-[(pyridin-4-ylmethyl)oxy]pyridin-2-yl}piperazine-1-carboxamide]",< 50 nM
29,"Nc1cc(COc2nsnc2N2CCN(C(=O)Nc3cc(C(F)(F)F)cc(C(F)(F)F)c3)CC2)ccn1 [Example 99, 4-(4-{[(2-aminopyridin-4-yl)methyl]oxy}-1,2,5-thiadiazol-3-yl)-N-[3,5-bis(trifluoromethyl)phenyl]piperazine-1-carboxamide]",< 50 nM
30,"CC(C)(C)OC(=O)Nc1cc(COc2nsnc2N2CCN(C(=O)Nc3cc(C(F)(F)F)cc(C(F)(F)F)c3)CC2)ccn1 [Example 100, 1,1-dimethylethyl {4-[({4-[4-({[3,5-bis(trifluoromethyl)phenyl]amino}carbonyl)piperazin-1-yl]-1,2,5-thiadiazol-3-yl}oxy)methyl]pyridin-2-yl}carbamate]",< 50 nM
